# Data: patent publication US9549942B2, “Composition for preventing or treating degenerative brain diseases including compound downregulating expression of BACE1 proteins” (RESEARCH & BUSINESS FOUNDATION SUNGKYUNKWAN UNIVERSITY, priority 2013, dated 2017)
# Experiments:
# BACE1 promoter = BACE1 promoter activity, BACE1 promoter-luciferase vector, Dual-Luciferase assay; assay type: cell-based; settings: Homo sapiens; SH-SY5Y transfected with BACE1 promoter-luciferase vector, 10 μM for 24 hours; read-out: decrease of BACE1 promoter activity
# Procedure: A BACE1 promoter-luciferase vector was transfected to brain nerve cells (SH-SY5Y). […] A change in a BACE1 promoter activity was measured using a Dual-Luciferase assay kit.
# BACE1 mRNA [1] = experiment: BACE1 mRNA under oxidative stress (HNE) conditions of brain nerve cells (real-time PCR); assay type: cell-based, human; settings: SH-SY5Y cells pretreated 24 hours at 1, 5 and 10 μM, then HNE
# Procedure: In order to determine an influence of chlorhexidine and thioguanosine of the present disclosure on an amount of BACE1 expression under oxidative stress conditions of brain nerve cells, the following experiment was performed.
# (§1) Brain nerve cells, SH-SY5Y cells, were pretreated with chlorhexidine and thioguanosine at 1 μM, 5 μM, and 10 μM for 24 hours. Then, an oxidative stress substance HNE (4-hydroxynonenal) was applied to the SH-SY5Y cells, and a change in the amount of BACE1 proteins was determined by Western blot. A change in an amount of BACE1 mRNA was determined by real-time PCR.
# In this regard, in FIGS. 9 and 10, asterisks (**) indicate a significant (p≦0.01) increase of BACE1 mRNA expression relative to control. Similarly, number signs (##) indicate a significant (p≦0.01) decrease, and number signs (###) indicate a significant (p≦0.001) decrease in BACE1 mRNA expression relative to oxidative stress conditions.
# Aβ40 and Aβ42 = experiment: Generation of Aβ40 and Aβ42 in brain, human amyloid β assay kits (ELISA); assay type: in vivo; settings: 3×Tg-AD mouse brain, 25 mg/kg orally every day for 4 weeks
# Procedure: (§2) As an Alzheimer's dementia animal model, 3×Tg-AD mice were used. The 3×Tg-AD mouse is a mouse having overexpressed presenilin, amyloid precursor protein (APP), and Tau genes, which are frequently found in Alzheimer's dementia. The 3×Tg-AD mouse is an animal model that is widely used for research on Alzheimer's dementia (Oddo S. et al, 2003, Neuron, 39, 409-421). 25 mg/kg of chlorhexidine was orally administered every day for 4 weeks; and 0.1 mg/kg and 0.5 mg/kg of thioguanosine were orally administered every day for 8 weeks to 6-month old 3×Tg-AD mice. A Morris water maze test was used to evaluate the effects of chlorhexidine and thioguanosine administration on the mice.
# From the 3×Tg-AD mouse to which chlorhexidine was administered in Example 4a brain was extracted. A […] frozen section was prepared from the extracted brain using a microtome. Then, generation of Aβ was measured using immuno staining or a human amyloid 13 (1-40) assay kit (IBL) and a human amyloid β (1-42) assay kit (IBL). FIGS. 20 and 21 show the results.
# BACE1 proteins [2] = experiment: BACE1 protein expression under oxidative stress (HNE) conditions of brain nerve cells (Western blot); assay type: cell-based, human; settings: SH-SY5Y cells pretreated 24 hours at 1, 5 and 10 μM, then HNE
# Procedure: as §1, with “In order to determine an influence of chlorhexidine and thioguanosine of the present disclosure on an amount of BACE1 expression under oxidative stress conditions of brain nerve cells, the following experiment was performed. Brain” for “Brain”
# BACE1 proteins [3] = experiment: BACE1 protein expression in brain of Alzheimer's dementia animal model (Western blot); assay type: in vivo; settings: 3×Tg-AD mouse, 25 mg/kg orally every day for 4 weeks
# Procedure: as §2
# (§3) From the 3×Tg-AD mouse to which chlorhexidine was administered in Example 4a brain was extracted. The extracted brain was lysed using a tissue lysis buffer and RNA was extracted using Trizol. The amount of BACE1 expression was determined by Western blot and real-time PCR. FIGS. 18 and 19 show the results.
# BACE1 mRNA [4] = experiment: BACE1 mRNA in brain of Alzheimer's dementia animal model (real-time PCR); assay type: in vivo; settings: 3×Tg-AD mouse, 25 mg/kg orally every day for 4 weeks
# Procedure: as §2, §3
# 3×Tg-AD mice = experiment: Morris water maze, platform removed on fifth day (memory); assay type: in vivo, mouse; settings: 25 mg/kg orally every day for 4 weeks, 60 seconds
# Procedure: as §2, with “the mice. […] In this configuration, a treated or control subject was placed into the water with its head towards a water tank wall surface, and a time was recorded for the length of time taken for finding the escape platform. […] After 15 minutes, the mouse was placed into the water again, a subsequent time taken for finding the escape platform was recorded, and a change in the learning ability was determined. This procedure was performed over four days, and the result of change in learning ability was measured. […]” for “the mice.”
compound,measurement,setting,value
"[H]/N=C(\N/C(=N/[H])NCCCCCCNC(=N)NC(=N)Nc1ccc(Cl)cc1)Nc1ccc(Cl)cc1 [chlorhexidine, N′,N′″″-hexane-1,6-diylbis[N-(4-chlorophenyl)(imidodicarbonimidic diamide)]]",inhibition at 10 µM,BACE1 promoter,≥ 50%
same,increase in the amount of BACE1 mRNA due to oxidative stress,BACE1 mRNA [1],decreased at 1 μM and at 5 μM
same,generation of Aβ40,Aβ40 and Aβ42,decreased
same,generation of Aβ42,Aβ40 and Aβ42,decreased
same,increase in the amount of expression of BACE1 proteins due to oxidative stress,BACE1 proteins [2],decreased at 5 μM and 10 μM
same,expression of BACE1 proteins in brain,BACE1 proteins [3],lower expression of BACE1 proteins than that of the control group
same,amount of BACE1 mRNA in brain,BACE1 mRNA [4],lower amount of BACE1 mRNA than that of the control group
same,memory: time in target quadrant after platform removed,3×Tg-AD mice,spent the majority of time in the location in which the platform was formerly placed
